Reference: patent US20240190890A1, “MK2 INHIBITORS AND USES THEREOF” (Bristol-Myers Squibb Company, priority 2022, published 2024)

Target: p38a activated, mitogen-activated protein kinase-activated protein kinase 2 (MAPKAP-K2 or MK2) enzyme (Homo sapiens (Human), UniProt P49137)
Test: MK2 Omnia continuous-read kinase assay for compound potency
Assay type: biochemical
Conditions: [MK-2]=0.4 nM, [ATP]=10 μM, [ST3-Sox]=10 μM; room temperature
From the text: Mitogen-Activated Protein Kinase-Activated Protein Kinase 2 Omnia® Assay for Compound Potency Assessment:
The protocol below describes a continuous-read kinase assay optimized to measure potency of compounds against p38a activated, mitogen-activated protein kinase-activated protein kinase 2 (MAPKAP-K2 or MK2) enzyme. Further details of this assay are described by Life Technologies, Carlsbad, CA on their website at the following URL: http://tools.lifetechnologies.com/content/sfs/manuals/omnia_kinase_assay_man.pdf. • [Reagent] used: • [MK-2]=0.4 nM, • [ATP]=10 μM and • [ST3-Sox]=10 μM (ATP^appKM=10 μM)
Briefly, 10× stock solutions of MK2 (PV3317, from Life Technologies), 1.13X ATP (AS001A), and Sox conjugated peptide substrate, S/T3-Sox, (KZN1031) were prepared in 1× kinase reaction buffer consisting of 20 mM Tris, pH 7.5, 5 mM MgCl2, 1 mM EGTA, 5 mM β-glycerophosphate, 5% glycerol (10× stock, KB001A) and 0.2 mM DTT (DS001A). Enzyme solution (5 μL) was added to each of DMSO ([…]) or serially diluted test compounds prepared in DMSO in a Corning (#3574) 384-well, white, non-binding surface microtiter plate (Corning, NY). Kinase reactions were started with the addition of 45 μL of the ATP-peptide substrate S/T3-Sox mix and monitored every 71 seconds for 120 minutes at λex360/λem485 in a Synergy H4 plate reader from BioTek (Winooski, VT) at room temperature.
Background signals from the no enzyme control wells were subtracted from all progress curves. The initial linear portions of the net progress curves were fit according to a linear equation to yield the slope and percentage of inhibition (% inhibition) at each compound concentration. The net progress curves obtained during the first two hours of reactions were also fit according to an ascending single-exponential equation (Eq. 1) to yield kobs values at each compound concentration. Plots of % Inhibition versus inhibitor concentrations were fit according to a dose-response equation (Eq. 2) to generate IC50 and Hill slope values while plots of kobs versus inhibitor concentration were fit according to Equation 3 (Eq. 3) to generate apparent kinact/K1 values using the GraphPad PRISM software (Version 6.00; GraphPad San Diego, CA).
where F is the fluorescence intensity from the plate reader, V0 is a constant reflecting the relationship between the instrument readout and product concentration, t is time, e is Euler's number, and kobs is the observed inactivation rate constant.
where % Inhibition is percentage of inhibition, IC50 is half maximal inhibitory concentration, [I] is the inhibitor concentration, and n is the Hill slope.
where kobs is the observed inactivation rate constant, kinact is the apparent inactivation rate constant, K1 is the apparent inhibition constant, and [I] is the inhibitor concentration. […] Potency results for the compounds tested are shown in Table 4 in the column entitled “MK2 IC50.”

Sequence of p38a activated, mitogen-activated protein kinase-activated protein kinase 2 (MAPKAP-K2 or MK2) enzyme (P49137 whole entry): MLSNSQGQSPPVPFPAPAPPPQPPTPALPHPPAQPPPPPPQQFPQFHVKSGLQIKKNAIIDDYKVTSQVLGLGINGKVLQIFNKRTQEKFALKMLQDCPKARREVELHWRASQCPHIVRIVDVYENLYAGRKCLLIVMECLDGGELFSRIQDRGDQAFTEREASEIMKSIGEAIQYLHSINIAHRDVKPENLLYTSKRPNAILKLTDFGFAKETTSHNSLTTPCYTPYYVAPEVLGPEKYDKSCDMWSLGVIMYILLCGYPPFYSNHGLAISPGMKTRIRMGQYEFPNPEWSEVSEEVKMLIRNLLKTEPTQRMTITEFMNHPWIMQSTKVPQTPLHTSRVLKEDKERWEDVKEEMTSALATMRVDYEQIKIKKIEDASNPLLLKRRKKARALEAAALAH

| IC50 [µM] | Compound |
| --- | --- |
| 0.273 | COc1nnc(/C=C/CN(C)C)cc1-c1ccc2c(ccc3sc4c(c32)NC[C@@H](C)NC4=O)n1 [Example I-145, (R,E)-3-(6-(3-(dimethylamino)prop-1-en-1-yl)-3-methoxypyridazin-4-yl)-10-methyl-9,10,11,12-tetrahydro-8H-[1,4]diazepino[5′,6′:4,5]thieno[3,2-f]quinolin-8-one] |
| 0.678 | C#Cc1cc(-c2ccc3c(ccc4sc5c(c43)NC[C@@H](C)NC5=O)n2)c(Cl)cn1 [Example I-144, (R)-3-(5-chloro-2-ethynylpyridin-4-yl)-10-methyl-9,10,11,12-tetrahydro-8H-[1,4]diazepino[5′,6′:4,5]thieno[3,2-f]quinolin-8-one] |
| 0.013 | C=Cc1cc(-c2ccc3c(ccc4sc5c(c43)NC[C@@H](C)NC5=O)n2)c(CC)cn1 [Example I-195, (R)-3-(5-ethyl-2-vinylpyridin-4-yl)-10-methyl-9,10,11,12-tetrahydro-8H-[1,4]diazepino[5′,6′:4,5]thieno[3,2-f]quinolin-8-one] |
| 0.039 | C#Cc1cc(-c2ccc3c(ccc4sc5c(c43)NC[C@@H](C)NC5=O)n2)c(F)cn1 [Example I-71, (R)-3-(2-ethynyl-5-fluoropyridin-4-yl)-10-methyl-9,10,11,12-tetrahydro-8H-[1,4]diazepino[5′,6′:4,5]thieno[3,2-f]quinolin-8-one] |
| 0.275 | C=Cc1cc(-c2ccc3c(ccc4sc5c(c43)NC[C@@H](C)NC5=O)n2)c(CN2CC(F)(F)C2)cn1 [Example I-211, (R)-3-(5-((3,3-difluoroazetidin-1-yl)methyl)-2-vinylpyridin-4-yl)-10-methyl-9,10,11,12-tetrahydro-8H-[1,4]diazepino[5′,6′:4,5]thieno[3,2-f]quinolin-8-one] |
| 0.027 | C[C@@H]1CNc2c(sc3ccc4nc(-c5cc(Cl)ncc5F)ccc4c23)C(=O)N1 [Example I-69, (R)-3-(2-chloro-5-fluoropyridin-4-yl)-10-methyl-9,10,11,12-tetrahydro-8H-[1,4]diazepino[5′,6′:4,5]thieno[3,2-f]quinolin-8-one] |
| 0.157 | C=Cc1cc(C)nn1-c1ccc2c(ccc3sc4c(c32)NC[C@@H](C)NC4=O)n1 [Example I-236, (R)-10-methyl-3-(3-methyl-5-vinyl-1H-pyrazol-1-yl)-9,10,11,12-tetrahydro-8H-[1,4]diazepino[5′,6′:4,5]thieno[3,2-f]quinolin-8-one] |
| 0.013 | C=Cc1ncc(CO)c(-c2ccc3c(ccc4sc5c(c43)NC[C@@H](C)NC5=O)n2)n1 [Example I-77, (R)-3-(5-(hydroxymethyl)-2-vinylpyrimidin-4-yl)-10-methyl-9,10,11,12-tetrahydro-8H-[1,4]diazepino[5′,6′:4,5]thieno[3,2-f]quinolin-8-one] |
| 0.035 | C=Cc1cc(-c2ccc3c(ccc4sc5c(c43)NC[C@@H](C)NC5=O)n2)cc(N2CCN(CC)CC2)n1 [Example I-173, (R)-3-(2-(4-ethylpiperazin-1-yl)-6-vinylpyridin-4-yl)-10-methyl-9,10,11,12-tetrahydro-8H-[1,4]diazepino[5′,6′:4,5]thieno[3,2-f]quinolin-8-one] |
| 0.009 | [2H]C([2H])([2H])c1cnc(C=C)cc1-c1ccc2c(ccc3sc4c(c32)NC[C@@H](C)NC4=O)n1 [Example I-142, (R)-10-methyl-3-(5-(methyl-d3)-2-vinylpyridin-4-yl)-9,10,11,12-tetrahydro-8H-[1,4]diazepino[5′,6′:4,5]thieno[3,2-f]quinolin-8-one] |
| 0.255 | C=Cc1cc(-c2ccc3c(ccc4sc5c(c43)NC[C@@H](C)NC5=O)n2)c(OCCN2CCOCC2)nn1 [Example I-133, (R)-10-methyl-3-(3-(2-morpholinoethoxy)-6-vinylpyridazin-4-yl)-9,10,11,12-tetrahydro-8H-[1,4]diazepino[5′,6′:4,5]thieno[3,2-f]quinolin-8-one] |
| 0.026 | C#Cc1cc(-c2ccc3c(ccc4sc5c(c43)NC[C@@H](C)NC5=O)n2)c(OC)nn1 [Example I-91, (R)-3-(6-ethynyl-3-methoxypyridazin-4-yl)-10-methyl-9,10,11,12-tetrahydro-8H-[1,4]diazepino[5′,6′:4,5]thieno[3,2-f]quinolin-8-one] |
| 0.004 | C=Cc1cc(-c2ccc3c(ccc4sc5c(c43)NC[C@@H](C)NC5=O)n2)c(C(F)F)cn1 [Example I-130, (R)-3-(5-(difluoromethyl)-2-vinylpyridin-4-yl)-10-methyl-9,10,11,12-tetrahydro-8H-[1,4]diazepino[5′,6′:4,5]thieno[3,2-f]quinolin-8-one] |
| 0.039 | C=Cc1cnc(C)c(-c2ccc3c(ccc4sc5c(c43)NC[C@@H](C)NC5=O)n2)n1 [Example I-181, (R)-10-methyl-3-(3-methyl-6-vinylpyrazin-2-yl)-9,10,11,12-tetrahydro-8H-[1,4]diazepino[5′,6′:4,5]thieno[3,2-f]quinolin-8-one] |
| 0.001 | C=Cc1cc(-c2ccc3c(ccc4sc5c(c43)NC[C@@H](C)NC5=O)n2)nc(COC)n1 [Example I-13, (R)-3-(2-(methoxymethyl)-6-vinylpyrimidin-4-yl)-10-methyl-9,10,11,12-tetrahydro-8H-[1,4]diazepino[5′,6′:4,5]thieno[3,2-f]quinolin-8-one] |
| 0.005 | C=Cc1cc(-c2ccc3c(ccc4sc5c(c43)NC[C@@H](C)NC5=O)n2)c(C)c(C)n1 [Example I-194, (R)-3-(2,3-dimethyl-6-vinylpyridin-4-yl)-10-methyl-9,10,11,12-tetrahydro-8H-[1,4]diazepino[5′,6′:4,5]thieno[3,2-f]quinolin-8-one] |
| 0.019 | C=Cc1cc(-c2ccc3c(ccc4sc5c(c43)NC[C@@H](C)NC5=O)n2)c(NC)nn1 [Example I-128, (R)-10-methyl-3-(3-(methylamino)-6-vinylpyridazin-4-yl)-9,10,11,12-tetrahydro-8H-[1,4]diazepino[5′,6′:4,5]thieno[3,2-f]quinolin-8-one] |
| 0.018 | C=Cc1nc(C(=O)OCC)c(-c2ccc3c(ccc4sc5c(c43)NC[C@@H](C)NC5=O)n2)s1 [Example I-234, ethyl (R)-5-(10-methyl-8-oxo-9,10,11,12-tetrahydro-8H-[1,4]diazepino[5′,6′:4,5]thieno[3,2-f]quinolin-3-yl)-2-vinylthiazole-4-carboxylate] |
| 0.177 | C#Cc1nccc(-c2ccc3c(ccc4sc5c(c43)NC[C@@H](C)NC5=O)n2)c1C [Example I-220, (R)-3-(2-ethynyl-3-methylpyridin-4-yl)-10-methyl-9,10,11,12-tetrahydro-8H-[1,4]diazepino[5′,6′:4,5]thieno[3,2-f]quinolin-8-one] |
| 0.075 | C#Cc1cc(-c2ccc3c(ccc4sc5c(c43)NC[C@@H](C)NC5=O)n2)cc(Cl)n1 [Example I-73, (R)-3-(2-chloro-6-ethynylpyridin-4-yl)-10-methyl-9,10,11,12-tetrahydro-8H-[1,4]diazepino[5′,6′:4,5]thieno[3,2-f]quinolin-8-one] |
| 0.009 | C=Cc1nncn1-c1ccc2c(ccc3sc4c(c32)NC[C@@H](C)NC4=O)n1 [Example I-203, (R)-10-methyl-3-(3-vinyl-4H-1,2,4-triazol-4-yl)-9,10,11,12-tetrahydro-8H-[1,4]diazepino[5′,6′:4,5]thieno[3,2-f]quinolin-8-one] |
| 0.002 | C=Cc1nc(C)nn1-c1ccc2c(ccc3sc4c(c32)NC[C@@H](C)NC4=O)n1 [Example I-224, (R)-10-methyl-3-(3-methyl-5-vinyl-1H-1,2,4-triazol-1-yl)-9,10,11,12-tetrahydro-8H-[1,4]diazepino[5′,6′:4,5]thieno[3,2-f]quinolin-8-one] |
| 0.185 | C#Cc1cc(-c2ccc3c(ccc4sc5c(c43)NC[C@@H](C)NC5=O)n2)cc(N2CCCCC2)n1 [Example I-178, (R)-3-(2-ethynyl-6-(piperidin-1-yl)pyridin-4-yl)-10-methyl-9,10,11,12-tetrahydro-8H-[1,4]diazepino[5′,6′:4,5]thieno[3,2-f]quinolin-8-one] |
| 0.09 | C[C@@H]1CNc2c(sc3ccc4nc(-c5cncc(Cl)c5)ccc4c23)C(=O)N1 [Example I-81, (R)-3-(5-chloropyridin-3-yl)-10-methyl-9,10,11,12-tetrahydro-8H-[1,4]diazepino[5′,6′:4,5]thieno[3,2-f]quinolin-8-one] |
